# Target: T1, σ1R (Mus musculus, UniProt O55242)
# T1 construct: The PET/CT studies in mice followed previously reported procedures; from tissue; host or cells: mouse brain in vivo (C57BL/6 wild type; 5xFAD transgenic)
# Test: PET/CT imaging in 5xFAD transgenic and WT mice
# Assay type: in vivo, 5xFAD mice
# Settings: 6-month-old male mice, PET/CT 30–60 min
# Description: Numerous studies have shown that σ 1R is abnormally expressed in the AD brain, and targeting σ 1R becomes a promising strategy for diagnosis and treatment of AD.^[ [11], [49] ^] To evaluate the diagnostic potential of [^11C]CNY‐01 for AD and its potential application in studying the relationship between the σ 1R and AD pathology, we conducted PET imaging studies on 5xFAD transgenic mice model and the corresponding wild‐type (WT) mice. […] Of particular note, brain regions with relatively high σ 1R expression observed higher reduction of radioactivity uptake, such as the striatum, hippocampus, and cerebellum, indicating a decrease in σ 1R expression in the brain under AD pathological conditions, consistent with previous reports (Figure 5B).^[ [11], [49], [50] ^]
# Figure 5 PET/CT imaging studies of [^11C]CNY‐01 in WT and 5xFAD mouse model. A) Representative PET/CT images (30–60 min) focused on the WT and 5xFAD mice brain. (n = 4). […] Data were presented as mean ± standard error of the mean (SEM). Quantification of results was performed using Student's t‐test (****p < 0.0001, ***p < 0.001, **p < 0.01, […]).
# The PET/CT studies in mice followed previously reported procedures with minor modifications.^[ [53], [54] ^] […] Reconstructed images were exported from the scanner in DICOM format and were analyzed using PMOD (PMOD 4.01).
# T1 sequence (O55242 whole entry): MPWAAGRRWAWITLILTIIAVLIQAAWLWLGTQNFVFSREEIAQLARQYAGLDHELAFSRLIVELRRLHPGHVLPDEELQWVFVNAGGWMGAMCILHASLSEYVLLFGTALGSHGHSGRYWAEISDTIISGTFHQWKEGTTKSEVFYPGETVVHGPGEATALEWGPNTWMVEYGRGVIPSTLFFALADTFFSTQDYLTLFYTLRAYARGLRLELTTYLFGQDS
smiles,measurement,value
Cc1nc(-c2ccc(O[11CH3])cc2)nc(OCCCN2CCCCC2)c1Cl [[^11C]CNY-01],brain uptake in 5xFAD mice compared to WT mice,significantly lower uptake

# From article PMC12140300, “Development of Carbon‐11 Labeled Pyrimidine Derivatives as Novel Positron Emission Tomography (PET) Agents Enabling Brain Sigma‐1 Receptor Imaging” (Advanced Science, 2025)
